Source: US20260207530A1, “USE FOR AMELIORATION OF INTESTINAL DISEASES USING ALLULOSE” (SAMYANG CORPORATION, priority 2022, published 2026)

Columns and labels:
Assay type in all cases: cell-based, human
Caco-2 cells = test: ROS accumulation with DCFH-DA fluorescent probe in Caco-2 cells with LPS-induced inflammation; conditions: Caco-2, LPS 1 μg/ml and allulose 5, 10, 20 mM 12 h
Description: Caco- 2 cells were seeded at 5×10^4 cells/well in 96-well plates and cultured. After simultaneous treatment with LPS (1 μg/ml) and allulose at concentrations of 5 mM, 10 mM, and 20 mM, the cells were cultured for 12 h under conditions of 5% CO2 and 37° C. After removing the culture supernatant, DCF-DA was added to the medium at a concentration of 20 μM and cultured in an incubator for 30 min. After culture, the cells were washed with PBS and the amount of ROS production was measured using fluorescence absorbance at excitation of 488 nm and emission of 535 nm.

polarized Caco-2 cells = test: Transepithelial electrical resistance (TEER) in polarized Caco-2 cells treated with IFN-γ/TNF-α; conditions: polarized Caco-2, IFN-γ 10 ng/ml 24 hours, allulose 1 hour, TNF-α 10 ng/ml 6 hours; vs TEER decreased by IFN-γ/TNF-α
Description: Transepithelial electrical resistance (TEER) was measured as an indicator of the adhesive strength between intestinal epithelial cells using allulose as an active ingredient, and the electrical resistance values of the upper and lower layers of intestinal cells for allulose materials were examined. Specifically, Caco-2 cells were seeded in the upper layer of a Transwell insert at a concentration of 5×10^4 cells/well, and 600 μl of medium without cells was added to the lower layer and cultured. The medium was replaced every 2 days, and cultured for 3 weeks to form polarization. After polarization formation, the upper layer with cells was pre-treated with IFN-γ (10 ng/ml) for 24 hours, allulose was treated at various concentrations for 1 hour, and TNF-α (10 ng/ml) was treated for 6 hours. After the reaction was completed, the electrical resistance value TEER was measured using a Millicell ERS-2 Voltohmmeter.

ZO-1 and Occludin = test: Expression of tight junction factors ZO-1 and Occludin in Caco-2 cells with LPS-induced inflammation (RT-PCR, Western blot); conditions: Caco-2, allulose 5, 10, 20 mM 6 hours, then LPS 1 μg/ml 12 hours; vs level decreased by inflammation
Description: Caco-2 cells were cultured in 24-well plates at a density of 2×10^5 cells/well. The medium was replaced every other day, and the cells were cultured for 6 hours after treatment with 5, 10, and 20 mM allulose, and reacted for 12 hours after treatment with LPS (1 μg/ml). After extracting RNA from the cells using Trizol, cDNA was synthesized using a cDNA synthesis kit, and the gene expression level was confirmed by qRT-PCR using primers designed for each gene. The PCR conditions used were denaturation at 95° C. for 15 seconds, annealing at 62° C. for 30 seconds, and elongation at 72° C. for 1 minute. For protein expression analysis, proteins were extracted from the cultured cells using RIPA lysis buffer. The extracted proteins were pretreated by reacting at 95° C. for 5 minutes, and then separated by electrophoresis on SDS-PAGE. After transferring the proteins to the PVDF membrane, they were blocked in a 5% (w/v) BSA solution for 1 hour, and the primary antibodies for each factor were diluted 1:1000 in a 5% (w/v) BSA solution and reacted at 4° C. for 1 day. […] The bands were detected using a LAS 4000 system, and the expression density was calculated using image detection software (image J software) to calculate the expression amount.

TLR4/NF-κB signaling = test: Expression of TLR4/NF-κB signaling factors in Caco-2 cells with LPS-induced inflammation (RT-PCR, Western blot); conditions: Caco-2, allulose 5, 10, 20 mM, LPS 1 μg/ml 24 hours
Description: The anti-inflammatory effect of allulose was confirmed in Caco-2 cells with inflammation induced with LPS (Lipopolysaccharide). The gene and protein expression levels of factors (p50, p65, TLR4, MyD88, IKKα, IKKβ, IKβα, IRAK4, TRAF6) related to TLR4/NF-κB signaling, which is a signaling that mediates the inflammatory response, were confirmed through RT-PCR and Western blot.
Specifically, Caco-2 cells were cultured and differentiated at a density of 2×10^5 cells/well in 24-well plates and simultaneously treated with allulose dissolved in MEM medium as culture medium of Caco-2 cells, at concentrations of 5, 10, and 20 mM. After 6 hours, LPS (1 μg/ml) was treated to induce inflammation for 24 hours. The culture was performed in an incubator at 5% CO2 and 37° C.
As a negative control, Caco-2 cells not treated with LPS were used. As a positive control, the differentiated Caco-2 cells which were treated with LPS to induce inflammation but not treated with allulose were used.
After extracting RNA from the cells using Trizol, cDNA was synthesized using a cDNA synthesis kit, and the expression level of the genes was confirmed by qRT-PCR using primers designed for each gene. The PCR conditions used were denaturation at 95° C. for 15 seconds, annealing at 62° C. for 30 seconds, and an elongation process at 72° C. for 1 minute. For protein expression analysis, proteins were extracted from the cultured cells using RIPA lysis buffer. The extracted proteins were pretreated by reaction at 95° C. for 5 minutes, and then separated by electrophoresis on SDS-PAGE. After the proteins were transferred to a PVDF membrane, they were blocked in a 5% (w/v) BSA solution for 1 hour, and the primary antibodies for each factor were diluted 1:1000 in a 5% (w/v) BSA solution and reacted at 4° C. for one day. […] The bands were detected using a LAS 4000 system, and the expression density was calculated using image detection software (Image J software) to calculate the expression amount.

[1] = test system: TLR4/NF-κB signaling and TLR4/MAPK signaling; test: Expression of TLR4/NF-κB and TLR4/MAPK signaling factors in HT-29 cells with LPS-induced inflammation (RT-PCR, Western blot); conditions: HT-29, allulose 5, 10, 20 mM, LPS 1 μg/ml
Description: HT-29 cells were treated simultaneously with LPS (1 μg/ml) and allulose, and reacted for 8 hours. Specifically, HT-29 cells were seeded at a concentration of 2×10^5 cells/well in 24-well plates and cultured in an incubator at 37° C. and % CO2 for 6-7 days. Allulose dissolved in RPMI 1640 medium, which is a HT-29 culture medium, was treated simultaneously at concentrations of 5, 10, and 20 mM, and after 8 hours, LPS (1 μg/ml) was treated to induce inflammation for 24 hours.
The gene and protein expression levels of Factors involved in TLR4/NF-κB signaling and TLR4/MAPK signaling were confirmed using RT-PCR and Western blot. After extracting RNA from cells using Trizol, cDNA was synthesized using a cDNA synthesis kit, and the gene expression levels were measured by qRT-PCR using primers designed for each gene. The PCR conditions used were denaturation at 95° C. for 15 seconds, annealing at 62° C. for 30 seconds, and elongation at 72° C. for 1 minute. For protein expression analysis, proteins were extracted from cultured cells using RIPA lysis buffer. The extracted proteins were pretreated by reacting at 95° C. for 5 minutes, and then separated by electrophoresis in SDS-PAGE. After transferring the protein to the PVDF membrane, it was blocked in 5% (w/v) BSA solution for 1 hour, and the primary antibody for each factor was diluted 1:1000 with 5% (w/v) BSA solution and reacted at 4° C. for 1 day. The membrane reacted with the primary antibody was reacted with the secondary antibody in tris-buffered saline solution containing 0.1% (v/v) Tween 20 for 1 hour at room temperature. The bands were detected using the LAS 4000 system, and the expression density was calculated using image detection software (image J software) to calculate the expression amount.

[2] = test system: Prostaglandin E2 and COX-2; test: Prostaglandin E2 (ELISA) and COX-2 (RT-PCR) in Caco-2 cells with LPS-induced inflammation; conditions: allulose 5, 10, 20 mM 6 hours, then LPS 1 μg/ml 12 hours
Description: Caco-2 cells were cultured in 24-well plates at a density of 2×10^5 cells/well. The medium was replaced every two days, and allulose was simultaneously treated at concentrations of 5 mM, 10 mM, and 20 mM, and cultured for 6 hours after treatment and reacted for 12 hours after LPS (1 μg/ml) treatment. The supernatant was used for ELISA analysis, and RNA was extracted from the cells using Trizol, and cDNA was synthesized using a cDNA synthesis kit. Then, the expression level of the genes was assessed by qRT-PCR using primers designed for each gene. The PCR conditions used were denaturation at 95° C. for 15 seconds, annealing at 62° C. for 30 seconds, and an elongation process at 72° C. for 1 minute.

[3] = test system: mucin genes (MUC2, MUC5AC, MUC5B); test: Mucin gene expression in HT-29 cells with LPS-induced inflammation (RT-PCR); conditions: HT-29, RT-PCR, allulose 5, 10, 20 mM, LPS 1 μg/ml 24 hours
Description: The effect of allulose on expression level of mucins was confirmed in HT-29 cells with LPS-induced inflammation. Specifically, HT-29 cells were seeded at a concentration of 2×10^5 cells/well in 24-well plates and cultured in an incubator at 37° C. and % CO2 for 6-7 days. Allulose dissolved in RPMI 1640 medium of a HT-29 culture medium, was simultaneously treated at concentrations of 5, 10, and 20 mM, and after 8 hours, LPS (1 μg/ml) was treated to induce inflammation for 24 hours. Afterwards, the cells were washed with PBS, RNA was extracted from the cells using Trizol, and cDNA was synthesized using a cDNA synthesis kit. Then, the expression level of the gene was assessed by qRT-PCR using primers produced for mucin genes (MUC2, MUC5AC, MUC5B) that protected the intestinal mucosa. The PCR conditions used were denaturation at 95° C. for 15 seconds, annealing at 62° C. for 30 seconds, and elongation at 72° C. for 1 minute.

O=C(CO)C(O)C(O)C(O)CO (centres unmarked) [allulose]
accumulated ROS (Caco-2 cells): reduced | electrical resistance value (TEER) (polarized Caco-2 cells): increased | mRNA and protein expression levels of Occludin (ZO-1 and Occludin): increased | mRNA and protein expression levels of ZO-1 (ZO-1 and Occludin): increased | expression amount of NF-κB p65/p50 (TLR4/NF-κB signaling): decreased | expression amount of TLR4 activated by LPS (TLR4/NF-κB signaling): decreased | expression level of factors related to TLR4/NF-κB signaling (mRNA and protein) (TLR4/NF-κB signaling; vs LPS control without allulose): decreased | MAPK signal (p38, p-p38, JNK, p-JNK, c-Jun, p-c-Jun, c-Fos, p-c-Fos) [1]: decreased | MyD88, IRAK4, TRAF6 expression [1]: decreased | NF-κB signal (p50, p65, p-p65, Ikkα, Ikkβ, p-Ikkαβ, Ikβα, p-Ikβα) [1]: decreased | expression level of COX-2 [1]: decreased | expression level of TLR4 [1]: decreased | concentration of Prostaglandin E2 ([2]; Caco-2, ELISA of supernatant): decreased | expression level of COX-2 ([2]; Caco-2, RT-PCR): decreased | expression level of MUC2 [3]: decreased | expression level of MUC5AC [3]: decreased | expression level of MUC5B [3]: decreased
